# Results reported in article PMC6934184, “Selective DNA-PKcs inhibition extends the therapeutic index of localized radiotherapy and chemotherapy” (The Journal of Clinical Investigation, 2019).
# Tests used:
# [1] = system: normal lung tissue; assay: γH2AX-positive cells in normal lung after thoracic irradiation; type: in vivo, mouse; details: 24 hours after 10 Gy; NU5455 30 mg/kg oral
# Procedure: combined with 10 Gy thorax irradiation ( n = 6 - 7/group). For whole-thorax irradiation, anaesthetized mice were placed in the supine position in a customized rig. The whole thorax was exposed to X-ray radiation generated by the Gulmay Medical RS320 irradiation system (2.034 Gy/minute). The rest of the body was protected by lead shields. Three mice fr om each treatment group were humanely killed 24 h ours after irradiation, and their tumors processed to permit immunohistochemical analysis .
# Tumor growth in the remaining mice was monitored by bioluminescent imaging on days 0, 4, 8 and 15 post-treatment. Mice were injected with luciferin (150 mg/kg i.p., Santa Cruz Biotechnology) and bioluminescence images were acquired using the IVIS Spectrum (PerkinElmer) at 5 minute intervals until maximum light was collected. […] Data were analyzed using LivingImage software (PerkinElmer). […]
# Tissues were fixed in 4% paraformaldehyde (PFA) and paraffin -embedded. […] One tissue section from each of 3 mice per group was examined, and the whole section (excluding necrotic areas) analyzed using ImageScope analysis software (Aperio Technologies). γH2AX and 53BP1 foci were manually counted in 200 nuclei from each tumor sample. The percentage of γH2AX and 53BP1 positive nuclei in lung epithelial cells was quantified manually in normal lung samples across 5 randomly-chosen fields of view per […]
# [2] = system: MCF7 cells; assay: clonogenic survival with IR; type: cell-based, Human; details: 1 μM
# Procedure: Cell line γH2AX and 53BP1 foci immunofluorescence and quantitation
# Cells grown on coverslips or in 96-well plates were treated with 1 or 5 µM NU5455 or DMSO 1 hour prior to irradiation (0, 2.5 or 10 Gy) using an RS 320 X-ray Research System (Gulmay Medical). At set timepoints (15 or 30 minutes, or 1, 4, 5, 6, or 24 hours post-irradiation), cells were washed and fixed in methanol or 3% paraformaldehyde (PFA). […] In A549 and Calu-6, cells were Hoechst stained (5 µg/ml), and the average numbers of γH2AX and 53BP1 foci per cell were quantified from 400 nuclei per sample using an In Cell analyzer 1000 (GE Healthcare). For MCF7 cells, coverslips were mounted using Vectashield mounting medium with DAPI (Vector Labs) and imaged using a Leica TCS SPE confocal fluorescence microscope. Total fluorescence intensity was determined using ImagePro Plus 5.0 software (Media Cybernetics). […]
# Cells were washed in phosphate-buffered saline (PBS), trypsinized and counted. […] Colonies were fixed using Carnoys fixture (75% v/v methanol, 25% v/v acetic acid, Fisher), stained with crystal violet (0.4% w/v in water), and counted using a ColCount automated colony counter (Oxford Optronics). Cell survival was calculated as a percentage of the untreated control. […]
structure (smiles),measurement,setting,value
CN(C(=O)CN1CCOCC1)c1ccc2sc3c(-c4cccc5c(=O)cc(N6CC7CCC(C6)O7)oc45)cccc3c2c1 [NU5455],number of γH2AX-positive cells in normal lung,[1],unaffected by NU5455 administration
same,radio-enhancement (LD80),[2]; 24-hour treatment after IR,2.4 fold
same,radio-enhancement (LD80),[2]; 1 hour of treatment after IR,1.2 fold
